Legend:
APTK-induced tumors = experiment: subcutaneous APTK tumors in Pink1-/- mice, UA diet; assay type: in vivo
Description: UA activates mitophagy in myocytes and hippocampal neurons via a Pink1/Parkin mediated stress-response (D'Amico et al., 2021). […] Moreover, UA stabilized Parkin protein expression (FIG. 4G). To functionally confirm the dependence of UA induced TSCM formation on Pink1/Parkin mediated mitophagy, the inventors activated Pink1^−/− T cells in the presence or absence of UA. Loss of Pink1 prevented the UA-induced lysosome formation as well as the decrease in mitochondrial content (FIG. 4H, I).
Tumors were minced and digested with Tumor & Tissue Dissociation Reagent (BD Horizon) for 30 min. The remaining organ pieces were filtered through a 70 μm cell strainer. Cells were then washed with PBS 1% BSA and 2 mM EDTA. Immune cells were enriched on a 30%/40%/75% Percoll gradient after a 1700 rpm 17 min centrifugation. Then, tumor immune filtrates or activated T cells were stained with Fixable Viability Dye-eF780 (65-0865-14; eBioscience), αCD45-FITC (30-F11; 11-0451-85; eBioscience), αCD11b-BV650 (M1/70; 56340; BD) α-CD11C-BV785 (HL3; 563735; BD), αLy6G-BV605 (53-6.7; 563005; BD), αLy6C-AF700 (HK1.4; 128024; Biolegend), αF4/80-PE (BM8; 12-4801-82, eBioscience), αPD-L1-PECy7 (MIH5; 25-5982-80, eBioscience); or with Fixable Viability Dye-eF780 (ebioscience), αCD45-BV786 (30-F11; 564225; BD), αCD4-BUV496 (GK1.5; 564667; BD), αCD8-BV605 (100744; Biolegend), αPD1-APC (J43; 17-9985-82; eBioscience), αTIM-3-PECy7 (RMT3-23; 119715; Biolegend), αCTLA4-PE (UC10-4B9; 106305; Biolegend) and αLag3-BV421 (C9B7W; 125221, Biolegend); or with Fixable Viability Dye-eF780 (eBioscience), αCD4-FITC (H129.19; 553650; BD), αCD8-APC (53-6.7; 17-0081-83; eBioscience), αCD44-AF400 (IM7; 103026; Biolegend), αCD62L-BV785 (MEL-14; 104440; Biolegend), αSca-1-PerCP-Cy5.5 (D7; 45-5981-82; eBioscience), αCD95-PE (Jo2; 554258; BD); or with Fixable Viability Dye-eF780 (eBioscience), αCD8-BV650 (53-6.7; 563234; BD), αCD4-BUV496 (GK1.5; 564667; BD), αCD127-APC (A7R34; 17-1271-82; eBioscience), αCD95-FITC (SA367H8; 152605; Biolegend), αCD44-AF400 (IM7; 103026; Biolegend), αCD62L-BV785 (MEL-14; 104440; Biolegend), αSca-1-PerCP-Cy5.5 (D7; 45-5981-82; eBioscience) followed by intracellular staining of αTCF1-PE (S33-966; 564217; BD), or PGC-1α (sc-518025; D-5; santa cruz), or αCyclinD1 (MA5-28534, DCS-6; Invitrogen) with transcription factor buffer set kit (BD Biosciences). To study cytokine expression, tumor immune infiltrates were stimulated ex vivo with 20 ng/ml PMA and 1 μg/ml Ionomycin (Sigma) for 3 h in T cell activation medium with Brefeldin A (Biolegend). For T cell in vitro activation experiments over several days, Brefeldin A was added to the medium for the last 3 hours.

[1] = tested on: Th1/Th17 cell infiltration; details: model of EAE; cited from earlier work

## O=c1oc2cc(O)ccc2c2ccc(O)cc12 [UA, Urolithin A]
APTK-induced tumors; Pink1 deletion, UA-containing vs control diet
  tumor growth (tumor suppressive effect of UA): abrogated the tumor suppressive effect of UA
APTK-induced tumors; UA vs control diet
  TCF-1 expression in CD8+ TIL: did not exhibit differences
  exhaustion markers in CD8+ TIL: did not exhibit differences
APTK-induced tumors; UA vs control diet, PMA/Ionomycin
  ex vivo cytokine release of CD8+ TIL: did not exhibit differences
[1]
  Th1/Th17 cell infiltration: blocking
